Results on four compounds are retold here after ChEMBL document CHEMBL5104209 (RSC Med Chem, 2022).

The species entered for test [1] is Homo sapiens. Briefly: Binding affinity to human His-tagged PAK4 (300 to 591 residues) L301A mutant expressed in Escherichia coli BL21 (DE3)pLysS in presence of staurosporine by ligand observed NMR competitive assay.
Test [2] can be described thus: Binding affinity to human His-tagged PAK4 (300 to 591 residues) L301A mutant expressed in Escherichia coli BL21 (DE3)pLysS by surface plasmon resonance assay. (SPR reads the build-up and loss of mass on a sensor chip optically.)

Calls of active or inactive are those of the source. The calls are words filed in the database; no cut-off is given here.

With `CNC(=O)c1cnn2ccc(C#N)cc12`, in test [1], the outcome was Active.

In the case of `c1c(Nc2nc(N3CCCCC3)nc3[nH]ncc23)n[nH]c1C1CC1`, in test [2], the affinity, expressed as Kd, was 0.05 µM. Still for that read-out and setting: the figure for `Nc1cccc2ncccc12` is 510 µM; for `NS(=O)(=O)c1cccc2cnccc12` it is 300 µM.

What is called Kd is the equilibrium constant for the complex coming apart.
